{"source": "patent US9290501B2", "about": "“Methods, assays and compounds for treating bacterial infections by inhibiting methylthioinosine phosphorylase” (Albert Einstein College of Medicine, Inc., priority 2010, dated 2016)", "key": {"PaMTIP [1]": {"molecular_target": "T1, PaMTIP (Pseudomonas aeruginosa (strain ATCC 15692 / DSM 22644 / CIP 104116 / JCM 14847 / LMG 12228 / 1C / PRS 101 / PAO1), UniProt Q9HZK1)", "assay": "biochemical", "protocol": "Assays for slow-onset inhibitors were carried out by adding 1 nM PaMTIP into reaction mixtures at 25° C. containing 100 mM Hepes, pH 7.4, 100 mM phosphate, pH 7.4, 2 mM MTI, 5 mM DTT, 0.5 unit of xanthine oxidase and variable inhibitor concentration. Inhibitors were present at >10 times the enzyme concentration, required to simplify data analysis (24). Assays for MTA inhibition used 200 μM MTI. Controls having no enzyme and no inhibitor were included in all of the inhibition assays. Inhibition constants were obtained by fitting initial rates with variable inhibitor concentrations to equation (1) using GraFit 5 (Erithacus Software):\n[formula] where vi is the initial rate in the presence of inhibitor, vo is the initial rate in the absence of inhibitor, Km is the Michaelis constant for MTI, [S] and [I] are MTI and inhibitor concentrations, respectively, and Ki is the inhibition constant. Slow-onset inhibitors display a second phase of tighter binding after reaching a thermodynamic equilibrium with the enzyme. The equilibrium constant for the second binding phase is indicated as Ki*. This constant was obtained by fitting initial final rates and inhibitor concentrations to equation (1) using GraFit 5 (22)."}, "PfPNP [2]": {"molecular_target": "T2, PfPNP (Plasmodium falciparum (isolate 3D7), UniProt Q8I3X4)", "conditions": "read-out: dissociation constants; cited from earlier work"}, "PfADA": {"molecular_target": "PfADA (Plasmodium falciparum (isolate 3D7), UniProt Q8IJA9)", "conditions": "PfADA deamination; cited from earlier work"}, "PaMTIP [3]": {"molecular_target": "T1, PaMTIP", "format": "biochemical", "conditions": "for fold decreases of Kcat/Km in comparison with those of MTI / kcat/Km: PaMTIP; for Km / kcat: PaMTIP phosphorolysis, 100 mM phosphate, pH 7.4, 25° C.", "protocol": "Product formation was monitored by conversion of hypoxanthine to uric acid by xanthine oxidase (22). The extinction coefficient of this assay was 12.9 mM^−1cm^−1 at 293 nm. Enzyme activity with adenosine or MTA as substrates was determined by conversion of adenine to 2,8-dihydroxyadenine using the same coupling enzyme (23). Its extinction coefficient at 293 nm was 15.2 mM^−1cm^−1. Reactions were carried out at 25° C. in 1 cm cuvettes, 1 mL volumes of 100 mM Hepes, pH 7.4, 100 mM phosphate, pH 7.4, variable concentrations of nucleoside substrate, 0.5 unit of xanthine oxidase, 5 mM DTT, and appropriate amounts of purified MTIP. Reactions were initiated by addition of enzyme and the initial rates were monitored with a CARY 300 UV-Visable spectrophotometer. Control rates (no PaMTIP) were subtracted from initial rates. Km and kcat values for PaMTIP were obtained by fitting initial rates to the Michaelis-Menten equation using GraFit 5 (Erithacus Software)."}, "PfPNP [4]": {"molecular_target": "T2, PfPNP", "conditions": "cited from earlier work"}, "[5]": {"conditions": "initial binding phase, 2 mM MTI, 25° C., pH 7.4, values ± S.E., read-out: Ki"}, "[6]": {"conditions": "second tighter binding phase of slow-onset inhibition, values ± S.E., read-out: Ki*"}}, "note": "“And” between values parts separate entries of the source, which are not always exact repeats. Equal entries are not always repeated. Where two headings read alike, the source gives them in different places.", "data": [{"compound": "CSC[C@@]1(O)CN(Cc2c[nH]c3c(=O)[nH]cnc23)C[C@@H]1O", "note": "[4′-HO-MT-DADMe-ImmH, (3S,4R)-1-[(9-deazahypoxanthin-9-yl)methyl]-3,4-dihydroxy-4-methylthiomethylpyrrolidine]", "values": [{"measurement": "inhibitor potency in words", "setting": "PaMTIP [1]", "value": "nanomolar inhibitor"}]}, {"compound": "CSC[C@H]1CN(Cc2c[nH]c3c(=O)[nH]cnc23)C[C@@H]1O", "note": "[MT-DADMe-ImmH, (3R,4S)-1-[(9-deazahypoxanthin-9-yl)methyl]-3-hydroxy-4-(methylthiomethyl)pyrrolidine]", "values": [{"measurement": "Ki", "setting": "PfPNP [2]", "value": 0.9, "unit": "nM"}, {"measurement": "Ki", "setting": "PaMTIP [1]; Ki*, second tighter binding phase of slow-onset inhibition, values ± S.E.", "value": "0.34 ± 0.02", "unit": "nM"}, {"measurement": "Ki", "setting": "PaMTIP [1]; [5]", "value": "0.8 ± 0.1", "unit": "nM"}]}, {"compound": "CSCC(CO)NCc1c[nH]c2c(=O)[nH]cnc12", "note": "(stereo not shown) [MT-SerMe-ImmH]", "values": [{"measurement": "Ki", "setting": "PaMTIP [1]; [6]", "value": 0.096, "unit": "nM"}]}, {"compound": "CSCC(CO)(CO)NCc1c[nH]c2c(=O)[nH]cnc12", "note": "[MT-TrisMe-ImmH, 7-((1,3-dihydroxy-2-(methylthiomethyl)propan-2-ylamino)methyl)-3H-pyrrolo[3,2-d]pyrimidin-4(5H)-one]", "values": [{"measurement": "Ki", "setting": "PaMTIP [1]; Ki", "value": 19, "unit": "nM"}]}, {"compound": "O=c1[nH]cnc2c([C@@H]3N[C@H](CSc4ccccc4)[C@@H](O)[C@H]3O)c[nH]c12", "note": "[PhT-ImmH]", "values": [{"measurement": "mode of inhibition", "setting": "PaMTIP [1]", "value": "slow-onset, tight-binding inhibition"}, {"measurement": "Ki", "setting": "PaMTIP [1]; [5]", "value": "0.66 ± 0.09", "unit": "nM"}, {"measurement": "Ki", "setting": "PaMTIP [1]; [6]", "value": 0.035, "unit": "nM"}]}, {"compound": "CCCSC[C@H]1CN(Cc2c[nH]c3c(=O)[nH]cnc23)C[C@@H]1O", "note": "[PrT-DADMe-ImmH]", "values": [{"measurement": "fold tighter binding / enhanced potency relative to MT-DADMe-ImmH", "setting": "PaMTIP [1]", "value": 4, "unit": "fold"}]}, {"compound": "Nc1ncnc2c1ncn2[C@@H]1O[C@H](CO)[C@@H](O)[C@H]1O", "note": "[adenosine]", "values": [{"measurement": "kcat/Km", "setting": "PfADA", "value": 62000, "unit": "M⁻¹ s⁻¹"}, {"measurement": "fold decreases of Kcat/Km in comparison with those of MTI", "setting": "PaMTIP [3]", "value": 750, "unit": "fold"}, {"measurement": "kcat/Km", "setting": "PaMTIP [3]", "value": 2400, "unit": "M⁻¹ s⁻¹"}, {"measurement": "Km", "setting": "PaMTIP [3]", "value": "23 ± 1", "unit": "µM"}, {"measurement": "kcat", "setting": "PaMTIP [3]", "value": "0.0549 s⁻¹ and 0.0549 ± 0.0005 s⁻¹"}, {"measurement": "kcat/Km", "setting": "PaMTIP [3]; Table 2", "value": "2.4 ± 0.1 × 10^3 M^−1s^−1"}]}, {"compound": "OC[C@H]1O[C@@H](n2cnc3c(O)ncnc32)[C@H](O)[C@@H]1O", "note": "[inosine]", "values": [{"measurement": "kcat/Km", "setting": "PfPNP [4]", "value": 360000, "unit": "M⁻¹ s⁻¹"}, {"measurement": "fold decreases of Kcat/Km in comparison with those of MTI", "setting": "PaMTIP [3]", "value": 300, "unit": "fold"}, {"measurement": "kcat/Km", "setting": "PaMTIP [3]", "value": 6300, "unit": "M⁻¹ s⁻¹"}, {"measurement": "Km", "setting": "PaMTIP [3]", "value": "90 ± 20", "unit": "µM"}, {"measurement": "kcat", "setting": "PaMTIP [3]", "value": "0.57 s⁻¹ and 0.57 ± 0.04 s⁻¹"}, {"measurement": "kcat/Km", "setting": "PaMTIP [3]; Table 2", "value": "6 ± 1 × 10^3 M^−1s^−1"}]}]}
